Target: T1, HCMV polymerase (Human cytomegalovirus, UniProt P08546)
T1 construct: made in house; host or cells: recombinant baculovirus-infected SF-9 cells
Test: HCMV polymerase assay (modified scintillation proximity assay)
Assay type: biochemical
Conditions: modified SPA assay; compounds diluted in 100% DMSO; 4.5 mM DTT in polymerase buffer
Protocol: The HCMV polymerase assay is performed using a scintillation proximity assay (SPA) as described in several references, such as N. D. Cook, et al., Pharmaceutical Manufacturing International, pages 49-53 (1992); K. Takeuchi, Laboratory Practice, September issue (1992); U.S. Pat. No. 4,568,649 (1986); which are incorporated by reference herein. Reactions are performed in 96-well plates. The assay is conducted in 100 μl volume with 5.4 mM HEPES (pH 7.5), 11.7 mM KCl, 4.5 mM MgCl2, 0.36 mg/ml BSA, and 90 nM ^3H-dTTP. Assays are run with and without CHAPS, (3-[(3-Cholamidopropyl)-dimethylammonio]-1-propane-sulfonate) at a final concentration of 2 mM. HCMV polymerase is diluted in enzyme dilution buffer containing 50% glycerol, 250 mM NaCl, 10 mM HEPES (pH 7.5), 100 μg/ml BSA, and 0.01% sodium azide. The HCMV polymerase, which is expressed in recombinant baculovirus-infected SF-9 cells and purified according to literature procedures, is added at 10% (or 10 μl) of the final reaction volume, i.e., 100 μl. Compounds are diluted in 50% DMSO and 10 μl are added to each well. Control wells contain an equivalent concentration of DMSO. […] Plates are incubated 10 min. at 37 C., then equilibrated to room temperature, and counted on a Packard Topcount. Linear regressions are performed and IC50's are calculated using computer software. […]

T1 sequence (P08546 whole entry): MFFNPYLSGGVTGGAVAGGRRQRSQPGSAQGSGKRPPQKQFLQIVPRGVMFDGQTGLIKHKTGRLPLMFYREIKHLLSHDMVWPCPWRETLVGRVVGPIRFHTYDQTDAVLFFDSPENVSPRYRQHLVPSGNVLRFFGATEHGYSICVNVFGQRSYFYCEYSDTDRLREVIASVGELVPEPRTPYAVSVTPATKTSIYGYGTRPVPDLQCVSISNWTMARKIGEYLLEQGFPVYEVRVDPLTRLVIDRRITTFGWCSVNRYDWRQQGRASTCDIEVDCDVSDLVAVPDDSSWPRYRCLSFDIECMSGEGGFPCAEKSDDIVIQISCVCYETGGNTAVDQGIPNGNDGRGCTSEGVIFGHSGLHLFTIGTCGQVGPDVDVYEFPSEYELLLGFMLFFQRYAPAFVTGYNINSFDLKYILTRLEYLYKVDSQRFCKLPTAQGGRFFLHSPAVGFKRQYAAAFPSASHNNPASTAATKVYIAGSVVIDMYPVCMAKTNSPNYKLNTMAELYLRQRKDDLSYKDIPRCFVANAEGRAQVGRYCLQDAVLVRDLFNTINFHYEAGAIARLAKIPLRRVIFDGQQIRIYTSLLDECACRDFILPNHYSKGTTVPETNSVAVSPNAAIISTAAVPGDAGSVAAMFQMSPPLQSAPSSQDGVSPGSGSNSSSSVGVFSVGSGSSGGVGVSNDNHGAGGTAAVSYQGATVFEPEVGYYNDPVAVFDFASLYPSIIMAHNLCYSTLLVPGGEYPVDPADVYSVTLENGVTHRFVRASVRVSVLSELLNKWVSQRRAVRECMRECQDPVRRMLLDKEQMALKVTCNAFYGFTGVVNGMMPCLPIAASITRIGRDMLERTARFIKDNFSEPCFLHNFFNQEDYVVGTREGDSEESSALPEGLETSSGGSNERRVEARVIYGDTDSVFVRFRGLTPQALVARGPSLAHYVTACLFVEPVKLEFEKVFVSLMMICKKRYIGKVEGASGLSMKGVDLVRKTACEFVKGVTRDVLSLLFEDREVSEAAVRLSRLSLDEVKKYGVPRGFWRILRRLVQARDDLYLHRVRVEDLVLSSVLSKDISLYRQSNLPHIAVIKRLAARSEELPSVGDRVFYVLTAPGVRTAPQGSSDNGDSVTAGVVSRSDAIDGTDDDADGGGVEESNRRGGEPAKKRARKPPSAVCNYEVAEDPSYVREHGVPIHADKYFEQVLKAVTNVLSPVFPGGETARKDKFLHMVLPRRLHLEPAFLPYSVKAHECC

IC50: 0.06 µM
Compound: O=C(NCc1ccc(Cl)cc1)c1cn2c3c(cc(CN4CCOCC4)cc3c1=S)OCC2 [Example 1, N-(4-chlorobenzyl)-9-(4-morpholinylmethyl)-7-thioxo-2,3-dihydro-7H-[1,4]oxazino[2,3,4-ij]quinoline-6-carboxamide]
